Experimental data as given in patent publication US8952169B2 (Genentech, Inc., priority 2012, dated 2015).
pIC50: −log10 of the molar value.

target: T1, hNav1.7 (Homo sapiens (Human), UniProt Q15858); assay: Tritiated aryl sulfonamide binding to membranes from cells expressing hNav1.7 and the β1 subunit (competitive binding); conditions: membranes with hNav1.7 and β1 subunit; [3H]compound displacement, 18 h, room temperature; read-out: NaV1.7 395 Memb Binding (IC50)
Protocol: Tritiated Aryl Sulfonamide Binding to Membranes Isolated from Cells that Heterologously Express hNav1.7 and the β1 Subunit
Preparation of membranes containing recombinantly expressed sodium channels: Frozen recombinant cell pellets were thawed on ice and diluted to 4 times the cell pellet weight with ice cold 50 mM Tris HCl, pH 7.4 buffer. The cell suspensions were homogenized on ice using a motorized glass dounce homogeniser. Homogenates were further diluted 8.4 times with ice cold 50 mM Tris HCl, pH 7.4 buffer and then centrifuged at 200×g at 4° C. for 15 min. The supernatants were collected and centrifuged at 10000×g at 4° C. for 50 min. The pellets were then re-suspended in 100 mM NaCl, 20 mM Tris HCl, pH 7.4 buffer containing 1% v/v protease inhibitors (Calbiochem) and re-homogenized on ice. The homogenized membranes were then processed through a syringe equipped with a 26 gauge needle. Protein concentrations were determined by Bradford Assay and the membranes were stored at −80° C.
Radioligand Binding Studies: Saturation experiments. A representative compound of formula (I) was tritiated. Three tritiums were incorporated in place of methyl hydrogens to generate [^3H]compound. Binding of this radioligand was preformed in 5 mL borosilicate glass test tubes at room temperature. Binding was initiated by adding membranes to increasing concentrations of [^3H]compound in 100 mM NaCl, 20 mM Tris HCl, pH 7.4 buffer containing 0.01% w/v bovine serum albumin (BSA) for 18 h. Non-specific binding was determined in the presence of 1 μM unlabelled compound. After 18 h, the reactants were filtered through GF/C glass fiber filters presoaked in 0.5% w/v polyethylene imine. […] [^3H]compound bound to filters was quantified by liquid scintillation counting.
Competitive binding experiments. Binding reactions were preformed in 96-well polypropylene plates at room temperature for 18 h. In 360 μL, membranes were incubated with 100 μM [^3H]compound and increasing concentrations of Test Compound. Non-specific binding was defined in the presence of 1 μM unlabelled compound. Reactions were transferred and filtered through 96-well glass fiber/C filter plates presoaked with 0.5% polyethylene imine. The filtered reactions were washed 5 times with 200 L ice cold buffer containing 0.25% BSA. Bound radioactivity was determined by liquid scintillation counting.
Data Analysis: For saturation experiments, non-specific binding was subtracted from total binding to provide specific binding and these values were recalculated in terms of pmol ligand bound per mg protein. Saturation curves were constructed and dissociation constants were calculated using the single site ligand binding model: Beq=(Bmax*X)/(X+Kd), where Beq is the amount of ligand bound at equilibrium, Bmax is the maximum receptor density, Kd is the dissociation constant for the ligand, and X is the free ligand concentration.

T1 sequence (Q15858 whole entry, looked up): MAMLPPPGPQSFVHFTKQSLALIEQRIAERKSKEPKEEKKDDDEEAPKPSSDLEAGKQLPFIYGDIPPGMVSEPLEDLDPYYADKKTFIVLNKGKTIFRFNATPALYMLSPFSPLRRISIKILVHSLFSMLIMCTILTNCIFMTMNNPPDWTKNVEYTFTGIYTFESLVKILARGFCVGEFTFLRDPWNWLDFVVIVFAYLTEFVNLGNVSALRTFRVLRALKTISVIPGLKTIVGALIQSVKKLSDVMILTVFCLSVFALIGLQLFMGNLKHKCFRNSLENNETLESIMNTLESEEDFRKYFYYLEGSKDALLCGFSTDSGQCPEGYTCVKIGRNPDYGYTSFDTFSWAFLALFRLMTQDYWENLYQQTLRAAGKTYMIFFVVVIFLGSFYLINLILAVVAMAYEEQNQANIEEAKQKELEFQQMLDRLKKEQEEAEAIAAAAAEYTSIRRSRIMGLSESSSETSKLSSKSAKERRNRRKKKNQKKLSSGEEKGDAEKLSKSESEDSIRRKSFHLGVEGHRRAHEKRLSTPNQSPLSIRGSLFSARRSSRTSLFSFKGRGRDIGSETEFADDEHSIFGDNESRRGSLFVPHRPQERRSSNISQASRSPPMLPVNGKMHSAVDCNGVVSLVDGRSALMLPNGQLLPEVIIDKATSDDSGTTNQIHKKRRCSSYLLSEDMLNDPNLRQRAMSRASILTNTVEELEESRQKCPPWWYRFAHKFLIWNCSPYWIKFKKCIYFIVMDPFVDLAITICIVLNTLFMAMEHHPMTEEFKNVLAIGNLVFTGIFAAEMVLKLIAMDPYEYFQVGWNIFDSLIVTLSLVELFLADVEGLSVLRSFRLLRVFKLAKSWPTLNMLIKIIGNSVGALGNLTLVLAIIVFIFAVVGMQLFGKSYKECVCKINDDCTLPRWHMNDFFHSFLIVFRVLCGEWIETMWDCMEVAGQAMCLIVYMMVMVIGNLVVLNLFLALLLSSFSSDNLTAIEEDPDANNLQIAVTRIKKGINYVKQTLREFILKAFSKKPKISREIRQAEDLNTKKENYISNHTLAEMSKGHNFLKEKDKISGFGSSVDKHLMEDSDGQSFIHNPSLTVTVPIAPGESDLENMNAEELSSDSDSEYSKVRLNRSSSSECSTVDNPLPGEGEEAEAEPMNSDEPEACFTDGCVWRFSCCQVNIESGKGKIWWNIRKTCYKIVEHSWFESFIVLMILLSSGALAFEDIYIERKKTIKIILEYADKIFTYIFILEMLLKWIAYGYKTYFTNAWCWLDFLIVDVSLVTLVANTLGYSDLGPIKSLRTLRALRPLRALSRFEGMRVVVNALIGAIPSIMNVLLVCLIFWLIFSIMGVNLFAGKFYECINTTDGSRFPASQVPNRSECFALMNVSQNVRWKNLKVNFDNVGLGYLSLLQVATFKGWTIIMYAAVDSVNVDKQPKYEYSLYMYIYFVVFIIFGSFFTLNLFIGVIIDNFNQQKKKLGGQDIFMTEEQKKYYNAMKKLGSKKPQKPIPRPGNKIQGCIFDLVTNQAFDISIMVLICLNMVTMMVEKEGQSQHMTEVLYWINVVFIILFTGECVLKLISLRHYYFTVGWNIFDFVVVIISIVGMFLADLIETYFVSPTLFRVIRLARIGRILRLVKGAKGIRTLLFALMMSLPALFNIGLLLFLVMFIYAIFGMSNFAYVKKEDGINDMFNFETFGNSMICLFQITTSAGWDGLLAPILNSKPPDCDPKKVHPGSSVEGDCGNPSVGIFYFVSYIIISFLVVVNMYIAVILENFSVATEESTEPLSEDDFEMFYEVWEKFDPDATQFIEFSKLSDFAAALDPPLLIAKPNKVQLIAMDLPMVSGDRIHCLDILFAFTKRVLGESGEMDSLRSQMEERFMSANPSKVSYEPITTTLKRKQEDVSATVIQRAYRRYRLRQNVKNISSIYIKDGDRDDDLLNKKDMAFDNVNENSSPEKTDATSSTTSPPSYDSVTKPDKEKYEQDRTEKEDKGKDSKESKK
T1 sequence (Q07699 whole entry partner, looked up): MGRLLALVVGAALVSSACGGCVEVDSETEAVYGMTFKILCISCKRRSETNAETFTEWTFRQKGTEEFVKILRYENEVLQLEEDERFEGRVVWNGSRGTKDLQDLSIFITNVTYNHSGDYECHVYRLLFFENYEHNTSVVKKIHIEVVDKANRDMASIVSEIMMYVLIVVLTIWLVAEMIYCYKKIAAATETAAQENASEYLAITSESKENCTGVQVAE

pIC50 | Compound
8.40 | CS(=O)(=O)NC(=O)c1cc(C2CC2(F)F)c(OCC23CC4CC(CC(C4)C2)C3)cc1F (stereo not drawn) [Example 380]
6.80 | CN(C)S(=O)(=O)NC(=O)c1cc(Cl)c(OCC23CC4CC(CC(Cl)(C4)C2)C3)cc1F
7.68 | CS(=O)(=O)NC(=O)c1cc(C2CC2)c(OC2CCC3(CC2)CC3)cc1F
7.52 | COCCS(=O)(=O)NC(=O)c1cc(C2CC2)c(OCC23CCCCC2C3(F)F)cc1F (stereo not drawn) [Example 311]
6.14 | COC12CC3CC(C1)C(Oc1cc(F)c(C(=O)NS(C)(=O)=O)cc1Cl)C(C3)C2 (stereo not drawn)
8.40 | O=C(NS(=O)(=O)C1CC1)c1cc(C2CC2)c(O[C@H]2C3CC4CC2C[C@@](Cl)(C4)C3)cc1F
7.92 | CC1(C)CCCC(Oc2cc(F)c(C(=O)NS(C)(=O)=O)cc2C2CC2)C1 (stereo not drawn) [Example 358, 5-cyclopropyl-4-((3,3-dimethylcyclohexyl)oxy)-2-fluoro-N-(methylsulfonyl)benzamide]
7.13 | CS(=O)(=O)NC(=O)c1cc(C2CC2)c(O[C@H]2C[C@@H]3CC[C@H]2C3)cc1F
7.96 | CC1(COc2cc(F)c(C(=O)NS(=O)(=O)N3CCC3)cc2C2CC2)CCC2(CC1)CC2(F)F (stereo not drawn)
7.85 | CO[C@@H]1CCN(S(=O)(=O)NC(=O)c2cc(C3CC3)c(OCC34CC5CC(CC(C5)C3)C4)cc2F)C1 [Example 301]
8.52 | O=C(NS(=O)(=O)C1CC1)c1cc(C2CC2)c(OCC2(C(F)(F)F)CCC2)cc1F [Example 327]
6.01 | O=C(NS(=O)(=O)N1CCC1)c1cc(Cl)c(OC2CCC(F)(F)CC2)cc1F
8.22 | O=C(NS(=O)(=O)N1CCC1)c1cc(C2CC2)c(OCC2CC=C(C3CC3)CC2)cc1F (stereo not drawn)
7.35 | CS(=O)(=O)NC(=O)c1cc(C2CC2)c(O[C@@H]2C[C@@H]3CC[C@H]2C3)cc1F
7.66 | CC1(F)CCC(COc2cc(F)c(C(=O)NS(=O)(=O)N3CCC3)cc2C2CC2)CC1 (stereo not drawn)
7.57 | CS(=O)(=O)NC(=O)c1cc(C2CC2)c(OCC2CCCC(F)(F)C2)cc1F (stereo not drawn)
7.18 | CNS(=O)(=O)NC(=O)c1cc(C2CC2)c(OCC2CCCC(F)(F)C2)cc1F (stereo not drawn)
6.85 | CS(=O)(=O)NC(=O)c1cc(Cl)c(OCCC2CCCC2)cc1F
5.00 | CS(=O)(=O)NC(=O)c1ccc(OCC23CC4CC(CC(O)(C4)C2)C3)c(Cl)c1 [Example 24]

pIC50 | Compound
7.17 | CS(=O)(=O)NC(=O)c1cc(Cl)c(OC2CCC3(CCCCC3)CC2)cc1F
7.96 | O=C(NS(=O)(=O)N1CCC1)c1cc(C2CC2)c(OCC23CCCCC2C3(F)F)cc1F (stereo not drawn) [Example 434]
8.70 | CS(=O)(=O)NC(=O)c1cc(C2CC2)c(OCC2CCC3(CC2)CC3)cc1F
8.22 | C/C=C/c1cc(C(=O)NS(=O)(=O)N2CCC2)c(F)cc1OCC12CC3CC(CC(C3)C1)C2 [Example 399]
6.02 | CNS(=O)(=O)NC(=O)c1cc(Cl)c(OC2C3CC4CC2CC(C(=O)OC)(C4)C3)cc1F (single isomer, unassigned) [Example 453]
6.11 | Cc1nnn(C23CC4CC(CC(COc5cc(F)c(C(=O)NS(C)(=O)=O)cc5Cl)(C4)C2)C3)n1
7.09 | O=C(NS(=O)(=O)C1CC1)c1cc(Cl)c(OCC2CC3C(C2)C3(F)F)cc1F (stereo not drawn) [Example 322]
6.74 | CNS(=O)(=O)NC(=O)c1cc(Cl)c(COc2ccc3c(c2)OC(C)(C)CC3)cc1F
6.05 | CN(C)S(=O)(=O)NC(=O)c1cc(Cl)c(OCCC2CCC2)cc1F [Example 140]
6.20 | O=C(NS(=O)(=O)N1CCC2(CC1)COC2)c1cc(C2CC2)c(OCC23CC4CC(CC(C4)C2)C3)cc1F
7.96 | O=C(NS(=O)(=O)C1CC1)c1cc(C2CC2)c(OCC2CC3CC3C2)cc1F (stereo not drawn)
7.80 | O=C(NS(=O)(=O)N1CCOCC1)c1cc(C2CC2)c(O[C@H]2C3CC4CC2C[C@](Cl)(C4)C3)cc1F
6.00 | CC(O)CS(=O)(=O)NC(=O)c1ccc(OCC23CC4CC(CC(C4)C2)C3)cc1F (stereo not drawn) [Example 215]
7.28 | CS(=O)(=O)NC(=O)c1cc(Cl)c(OCC23CC4CC(CC(Cl)(C4)C2)C3)cc1F
6.25 | CS(=O)(=O)NC(=O)c1cc(Cl)c(OCC2CCC(F)(F)CC2)cc1F
6.22 | COC12CC3CC(CC(COc4cc(F)c(C(=O)NS(C)(=O)=O)cc4Cl)(C3)C1)C2
7.80 | CS(=O)(=O)NC(=O)c1cc(Cl)c(COC23CC4CC(CC(C4)C2)C3)cc1F
7.44 | O=C(NS(=O)(=O)N1CCC1)c1cc(C2CC2)c(OCC2CCCC2)cc1F
7.01 | CNS(=O)(=O)NC(=O)c1cc(Cl)c(OCC23CC4CC(CC(C4)C2)C3)cc1F

pIC50 | Compound
6.49 | CN(C)S(=O)(=O)NC(=O)c1cc(Cl)c(OCC2CCCCC2)cc1F
7.19 | CNS(=O)(=O)NC(=O)c1cc(Cl)c(COc2ccc3c(c2)CCC(C)(C)C3)cc1F
5.00 | CC1(C)C(COc2cc(F)c(C(=O)NS(C)(=O)=O)cc2Cl)C1(C)C
6.17 | CN(C)S(=O)(=O)NC(=O)c1cc(Cl)c(OCC2CCCC2)cc1F
6.55 | CN(C)S(=O)(=O)NC(=O)c1cc(Cl)c(OC2C3CC4CC2CC(Cl)(C4)C3)cc1F (stereo not drawn)
7.18 | O=C(NS(=O)(=O)CCO)c1cc(C2CC2)c(OCC2CCCCC2)cc1F
7.07 | CS(=O)(=O)NC(=O)c1cc(Cl)c(COc2ccc3c(c2)CCCC3)cc1F
6.27 | CN(C)S(=O)(=O)NC(=O)c1cc(Cl)c(OCCC2CCCC2)cc1F
7.03 | CC1(C)CCCC(Oc2cc(F)c(C(=O)NS(C)(=O)=O)cc2Cl)C1 (stereo not drawn)
5.15 | CC1(C)[C@H]2CC[C@](C)(C2)[C@H]1Oc1cc(F)c(C(=O)NS(C)(=O)=O)cc1Cl
8.52 | CC(C)(C)S(=O)(=O)NC(=O)c1cc(C2CC2)c(OCC23CC4CC(CC(C4)C2)C3)cc1F
7.74 | O=C(NS(=O)(=O)N1CCC1)c1cc(C2CC2)c(OCC2CC3CC3C2)cc1F (stereo not drawn) [Example 454]
6.52 | CN(C)S(=O)(=O)NC(=O)c1cc(Cl)c(OCCCC2CCCC2)cc1F
6.92 | CS(=O)(=O)NC(=O)c1cc(Cl)c(OCC23CC4CC(CC(F)(C4)C2)C3)cc1F
7.05 | CS(=O)(=O)NC(=O)c1ccc(OCCC23CC4CC(CC(C4)C2)C3)c(Cl)c1
7.92 | N#CC1CN(S(=O)(=O)NC(=O)c2cc(C3CC3)c(OCC34CC5CC(CC(C5)C3)C4)cc2F)C1
7.17 | O=C(NS(=O)(=O)N1CC2(COC2)C1)c1cc(C2CC2)c(OCC23CC4CC(CC(C4)C2)C3)cc1F [Example 237]
7.09 | CN(C)S(=O)(=O)NC(=O)c1cc(Cl)c(OCC2CCC3(CCC3)CC2)cc1F

same assay, conditions: read-out: NaV1.7 395 Memb Binding (IC50)

Compound | pIC50
CS(=O)(=O)NC(=O)c1ccc(C(O)C2C3CC4CC(C3)CC2C4)c(Cl)c1 (stereo not drawn) | 5.92

target: T1, hNav1.7; assay: Patch voltage clamp electrophysiology (PatchXpress), HEK-293 cells, inactivated state block; assay type: cell-based; conditions: HEK-293 cells, β1 coexpressed; inactivated state, holding −60 mV; read-out: EP_PX 293 hNav1.7 (IC50)

pIC50 | Compound
7.10 | CS(=O)(=O)NC(=O)c1cc(C2CC2(F)F)c(OCC23CC4CC(CC(C4)C2)C3)cc1F (stereo not drawn) [Example 380]
7.07 | CN(C)S(=O)(=O)NC(=O)c1cc(Cl)c(OCC23CC4CC(CC(Cl)(C4)C2)C3)cc1F
7.74 | CS(=O)(=O)NC(=O)c1cc(C2CC2)c(OC2CCC3(CC2)CC3)cc1F
7.28 | COCCS(=O)(=O)NC(=O)c1cc(C2CC2)c(OCC23CCCCC2C3(F)F)cc1F (stereo not drawn) [Example 311]
6.21 | COC12CC3CC(C1)C(Oc1cc(F)c(C(=O)NS(C)(=O)=O)cc1Cl)C(C3)C2 (stereo not drawn)
7.62 | O=C(NS(=O)(=O)C1CC1)c1cc(C2CC2)c(O[C@H]2C3CC4CC2C[C@@](Cl)(C4)C3)cc1F
7.21 | CC1(C)CCCC(Oc2cc(F)c(C(=O)NS(C)(=O)=O)cc2C2CC2)C1 (stereo not drawn) [Example 358, 5-cyclopropyl-4-((3,3-dimethylcyclohexyl)oxy)-2-fluoro-N-(methylsulfonyl)benzamide]
7.62 | CS(=O)(=O)NC(=O)c1cc(C2CC2)c(O[C@H]2C[C@@H]3CC[C@H]2C3)cc1F
7.33 | CC1(COc2cc(F)c(C(=O)NS(=O)(=O)N3CCC3)cc2C2CC2)CCC2(CC1)CC2(F)F (stereo not drawn)
6.44 | CO[C@@H]1CCN(S(=O)(=O)NC(=O)c2cc(C3CC3)c(OCC34CC5CC(CC(C5)C3)C4)cc2F)C1 [Example 301]
7.92 | O=C(NS(=O)(=O)C1CC1)c1cc(C2CC2)c(OCC2(C(F)(F)F)CCC2)cc1F [Example 327]
5.36 | O=C(NS(=O)(=O)N1CCC1)c1cc(Cl)c(OC2CCC(F)(F)CC2)cc1F
8.00 | O=C(NS(=O)(=O)N1CCC1)c1cc(C2CC2)c(OCC2CC=C(C3CC3)CC2)cc1F (stereo not drawn)
6.64 | CS(=O)(=O)NC(=O)c1cc(C2CC2)c(O[C@@H]2C[C@@H]3CC[C@H]2C3)cc1F
7.46 | CC1(F)CCC(COc2cc(F)c(C(=O)NS(=O)(=O)N3CCC3)cc2C2CC2)CC1 (stereo not drawn)
6.38 | CS(=O)(=O)NC(=O)c1cc(C2CC2)c(OCC2CCCC(F)(F)C2)cc1F (stereo not drawn)
6.03 | CNS(=O)(=O)NC(=O)c1cc(C2CC2)c(OCC2CCCC(F)(F)C2)cc1F (stereo not drawn)
8.16 | 4-(adamantan-1-ylmethoxy)-3-chloro-N-(methylsulfonyl)benzamide [Example 12]
